From patent US10919935B2, “Antimicrobial peptide derived from myxinidin peptide and uses thereof” (INDUSTRY-ACADEMIC COOPERATION FOUNDATION, CHOSUN UNIVERSITY, priority 2015, dated 2021)
Residues, ends and D or L forms follow the SMILES beside them.

How the values were obtained:
S. aureus 3709 = experiment: MIC at salt concentration (Example 3); format: cell-based, Staphylococcus aureus
Method: (§1) To compare the antimicrobial activity of the peptide produced by the method of Example 1, the inventors of the present invention measured the minimum growth inhibitory concentration (MIC), which is minimum concentration of the peptide showing no dissociation of bacterial cells, at salt concentration.
(§2) Specifically, the bacterial strain described in the above Table 2 was cultured in each medium to a mid-log phase. Then, after dilution to bacterial cell concentration of 2×10^5 cells/100 μl, the cells were inoculated to a microtiter plate (NUNC, USA). Thereafter, myxinidin 1, myxinidin 2, or myxinidin 3 peptides which have been synthesized in Example 1 above was diluted, 1/2 times for each, with BSA+150 mM sodium chloride (NaCl) solution, physiological saline (PBS) solution, or 10 mM sodium phosphate (SP) solution in a 96-well plate. After adding the cells to a plate, the cells were cultured for 12 hours at 37° C. By using a microtiter plate reader (Merck Elisa reader, Germany), the absorbance was measured at a wavelength of 600 nm to determine the MIC value of each bacterial strain. As a control group, myxinidin as a mother peptide was subjected to the same processes as above and the MIC value of each bacterial strain was obtained.

S. aureus 3114 = experiment: MIC at salt concentration (Example 3); format: cell-based, Staphylococcus aureus
Method: as §1, §2

S. aureus = experiment: MIC at salt concentration (Example 3); format: cell-based, Staphylococcus aureus
Method: as §1, §2

[1] = tested on: Pseudomonas aeruginosa Isolated strain 5018; format: cell-based
[2] = tested on: Pseudomonas aeruginosa ATCC 27853; format: cell-based
[3] = tested on: Escherichia coli CCARM 1229; format: cell-based
[4] = tested on: Listeria monocytogenes KCTC 3710; format: cell-based
[5] = tested on: Escherichia coli CCARM 1238; format: cell-based
P. aeruginosa 3592 = experiment: MIC at salt concentration (Example 3); format: cell-based, Pseudomonas aeruginosa
Method: as §1, §2

P. aeruginosa 5018 = experiment: MIC at salt concentration (Example 3); format: cell-based, Pseudomonas aeruginosa
Method: as §1, §2

P. aeruginosa = experiment: MIC at salt concentration (Example 3); format: cell-based, Pseudomonas aeruginosa
Method: as §1, §2

S. typhimurium 8013 = experiment: MIC at salt concentration (Example 3); format: cell-based, Salmonella typhimurium
Method: as §1, §2

S. typhimurium 8009 = experiment: MIC at salt concentration (Example 3); format: cell-based, Salmonella typhimurium
Method: as §1, §2

S. typhimurium = experiment: MIC at salt concentration (Example 3); format: cell-based, Salmonella typhimurium
Method: as §1, §2

Escherichia coli = experiment: MIC at salt concentration (Example 3); format: cell-based
Method: as §1, §2

Escherichia coli 1229 = experiment: MIC at salt concentration (Example 3); format: cell-based
Method: as §1, §2

Escherichia coli 1238 = experiment: MIC at salt concentration (Example 3); format: cell-based
Method: as §1, §2

[6] = tested on: human skin keratinocyte cells infected with bacteria having tolerance to antibiotics; experiment: Migration of infected skin keratinocyte cells (scrape wound); format: cell-based; details: peptide at 2 times MIC
Excerpt: To determine the wound healing effect of the peptide of the present invention by activating migration of skin keratinocyte cells infected with Acinetobacter baumannii, Pseudomonas aeruginosa, or Staphylococcus aureus, which are the bacterial strain having tolerance to antibiotics, the adhered cells were damaged to have an infection followed by a treatment with myxinidin 2 or myxinidin 3. The resulting cells were then observed under a microscope.
Specifically, human skin keratinocyte cells were cultured at 1×10^6 cells/ml, and then scraped off using a tip. Then, the cells were infected with Staphylococcus aureus, Acinetobacter baumannii, or Pseudomonas aeruginosa, which are the bacterial strain having tolerance to antibiotics, followed by a treatment with the peptide at a concentration that is 2 times higher than the minimum inhibitory concentration. Cell migration was then observed under a microscope.

[7] = NaCl (BSA+150 mM sodium chloride)

In the case of `CC[C@H](C)[C@H](NC(=O)[C@H](Cc1c[nH]c2ccccc12)NC(=O)[C@H](CCCNC(=N)N)NC(=O)[C@@H](NC(=O)[C@@H](N)CCCNC(=N)N)[C@@H](C)CC)C(=O)N[C@@H](CC(C)C)C(=O)N[C@@H](CCCNC(=N)N)C(=O)N[C@@H](Cc1ccc(O)cc1)C(=O)N[C@@H](Cc1c[nH]c2ccccc12)C(=O)N[C@@H](CCCNC(=N)N)C(=O)N[C@@H](Cc1c[nH]c2ccccc12)C(=O)N[C@@H](CO)C(N)=O` [Myxinidin 3, RIRWILRYWRWS-NH2] (H-RIRWILRYWRWS-NH2; N-terminus assumed), the “Antimicrobial activity (MIC) according to salt concentration” value (from here on “Antimicrobial activity (MIC) according”) (S. aureus 3709; [7]) is reported as 4, the “Antimicrobial activity (MIC) according” value (S. aureus 3709; PBS) is reported as 4 and the “Antimicrobial activity (MIC) according” value (S. aureus 3709; SP (10 mM sodium phosphate)) is reported as 4. The “Antimicrobial activity (MIC) according” value (S. aureus 3114; [7]) was 16, the “Antimicrobial activity (MIC) according” value (S. aureus 3114; PBS) was 4 and the “Antimicrobial activity (MIC) according” value (S. aureus 3114; SP (10 mM sodium phosphate)) was 4. The “Antimicrobial activity (MIC) according” value (S. aureus; [7]) was 0.25, the “Antimicrobial activity (MIC) according” value (S. aureus; PBS) was 1 and the “Antimicrobial activity (MIC) according” value (S. aureus; SP (10 mM sodium phosphate)) was 1. The “Minimum growth inhibitory concentration” value [1] was 8 µM, the “Minimum growth inhibitory concentration” value [2] was 2 µM and the “Minimum growth inhibitory concentration” value [3] was 1 µM. The “Minimum growth inhibitory concentration” value [4] was 1 µM, the “Minimum growth inhibitory concentration” value [5] was 2 µM and the “Antimicrobial activity (MIC) according” value (P. aeruginosa 3592; [7]) was 8. The “Antimicrobial activity (MIC) according” value (P. aeruginosa 3592; PBS) was 4, the “Antimicrobial activity (MIC) according” value (P. aeruginosa 3592; SP (10 mM sodium phosphate)) was 4 and the “Antimicrobial activity (MIC) according” value (P. aeruginosa 5018; [7]) was 8. For the same molecule, the “Antimicrobial activity (MIC) according” value (P. aeruginosa 5018; PBS) was 4, the “Antimicrobial activity (MIC) according” value (P. aeruginosa 5018; SP (10 mM sodium phosphate)) was 2 and the “Antimicrobial activity (MIC) according” value (P. aeruginosa; [7]) was 4. For the same molecule, the “Antimicrobial activity (MIC) according” value (P. aeruginosa; PBS) was 4, the “Antimicrobial activity (MIC) according” value (P. aeruginosa; SP (10 mM sodium phosphate)) was 4 and the “Antimicrobial activity (MIC) according” value (S. typhimurium 8013; [7]) was 8. For the same molecule, the “Antimicrobial activity (MIC) according” value (S. typhimurium 8013; PBS) was 4, the “Antimicrobial activity (MIC) according” value (S. typhimurium 8013; SP (10 mM sodium phosphate)) was 2 and the “Antimicrobial activity (MIC) according” value (S. typhimurium 8009; [7]) was 4. The “Antimicrobial activity (MIC) according” value (S. typhimurium 8009; PBS) was 4, the “Antimicrobial activity (MIC) according” value (S. typhimurium 8009; SP (10 mM sodium phosphate)) was 2 and the “Antimicrobial activity (MIC) according” value (S. typhimurium; [7]) was 2. For the same molecule, the “Antimicrobial activity (MIC) according” value (S. typhimurium; PBS) was 2, the “Antimicrobial activity (MIC) according” value (S. typhimurium; SP (10 mM sodium phosphate)) was 2 and the “Antimicrobial activity (MIC) according” value (Escherichia coli; [7]) was 8. The “Antimicrobial activity (MIC) according” value (Escherichia coli; PBS) was 2, the “Antimicrobial activity (MIC) according” value (Escherichia coli; SP (10 mM sodium phosphate)) was 2 and the “Antimicrobial activity (MIC) according” value (Escherichia coli 1229; [7]) was 2. For the same molecule, the “Antimicrobial activity (MIC) according” value (Escherichia coli 1229; PBS) was 2, the “Antimicrobial activity (MIC) according” value (Escherichia coli 1229; SP (10 mM sodium phosphate)) was 2 and the “Antimicrobial activity (MIC) according” value (Escherichia coli 1238; [7]) was 8. For the same molecule, the “Antimicrobial activity (MIC) according” value (Escherichia coli 1238; PBS) was 4, the “Antimicrobial activity (MIC) according” value (Escherichia coli 1238; SP (10 mM sodium phosphate)) was 2 and the “Cell migration / regeneration of scraped keratinocytes” value (“Cell migration / regeneration” below) ([6]; infection with Acinetobacter baumannii) was “fast regeneration rate”. The “Cell migration / regeneration” value ([6]; infection with Pseudomonas aeruginosa) was “proliferation with no cell death” and the “Cell migration / regeneration” value ([6]; infection with Staphylococcus aureus) was “more rapid regeneration”.
